We go through 34 compounds from article PMC5943930, “Identification of Inhibitors Targeting Ferredoxin-NADP^+ Reductase from the Xanthomonas citri subsp. citri Phytopathogenic Bacteria” (Molecules : A Journal of Synthetic Chemistry and Natural …, 2017).

In the experiment the target is T1, XccFPR (Xanthomonas citri pv. citri, UniProt A0AAI7ZED9).
T1 sequence (A0AAI7ZED9 1-259): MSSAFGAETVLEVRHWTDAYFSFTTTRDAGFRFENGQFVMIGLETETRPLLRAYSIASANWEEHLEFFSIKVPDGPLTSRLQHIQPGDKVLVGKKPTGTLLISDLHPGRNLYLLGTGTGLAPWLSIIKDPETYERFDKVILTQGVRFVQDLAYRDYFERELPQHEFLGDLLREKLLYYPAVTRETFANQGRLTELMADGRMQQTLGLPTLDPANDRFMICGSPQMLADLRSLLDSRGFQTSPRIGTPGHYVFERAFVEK
The experiment in a line: NADPH-dependent DCPIP diaphorase activity of XccFPR, dose-response of inhibitors. The experiment is classed as biochemical, Xanthomonas citri subsp. citri. The procedure: When assayed in regular cuvettes, the DCPIP diaphorase activity of XccFPR was determined at 25 °C using a Cary 100 (Agilent Technologies Inc., Santa Clara, CA, USA) spectrophotometer as previously established. […] Positive controls (without any hit compound) were included in every reaction set. […] The DMSO concentration was kept at 2% in all samples. All kinetic experiments were performed in triplicate. The effect of the inhibitors on Km and kcat was determined by fitting the datasets to the Michaelis-Menten model. Additionally, data were globally fit to either Lineweaver-Burk equations for uncompetitive or non-competitive inhibition, yielding Ki for each compound (Equations (1) and (2), respectively).

[1] abbreviates: 25 °C, 2% DMSO, pH 8.0, 20 nM XccFPR, 95 µM DCPIP, 50 μM NADPH.
The mark [2] stands for this setting: 25 °C, 50 mM Tris/HCl, 2% DMSO, pH 8.0, 20 nM XccFPR, 95 µM DCPIP, 50 μM NADPH.
Where [3] appears, read: 25 °C, 50 mM Tris/HCl, 2% DMSO, pH 8.0, 20 nM XccFPR, 95 µM DCPIP, 50 μM NADPH, compound 0–800 μM.

Read-outs that look alike come from different tables or passages of the source.

`O=C(CCn1c(=O)oc2ccccc21)Sc1ccc(Cl)cc1Cl` [C15, 3-{3-[(2,4-dichlorophenyl)sulfanyl]-3-oxopropyl}-2,3-dihydro-1,3-benzoxazol-2-one] yielded an IC50 of 30 ± 1 µM.
As for `Cc1ccc2oc(=O)n(CCC(=O)NNC(=O)c3nc(-c4cccs4)no3)c2c1` [C32, 3-(5-methyl-2-oxo-2,3-dihydro-1,3-benzoxazol-3-yl)-N'-[3-(thiophen-2-yl)-1,2,4-oxadiazole-5-carbonyl]propanehydrazide], the IC50 was > 2720 µM. The “% Inhibition at ICmax” value under setting [1] is listed as ~56%.
`Cc1nc(-c2cc(C#N)c(SCCNS(=O)(=O)c3cccc(C(F)(F)F)c3)nc2C)cs1` [C19, N-(2-{[3-cyano-6-methyl-5-(2-methyl-1,3-thiazol-4-yl)pyridin-2-yl]sulfanyl}ethyl)-3-(trifluoromethyl)benzene-1-sulfonamide] returned an IC50 of 17 ± 1 µM.
`Cc1oc(C(=O)NNC(=O)Nc2cccc(C(F)(F)F)c2)nc1-c1ccccc1` [C9, 5-methyl-4-phenyl-N-({[3-(trifluoromethyl)phenyl]carbamoyl}amino)-1,3-oxazole-2-carboxamide] registered an IC50 of 147 ± 1 µM. Moreover, the “% Inhibition at ICmax” value under setting [1] is listed as 60 ± 4%.
In the case of `CCOC(=O)C1=C(C)NC(C)=C(C(=O)OCC)C1c1ccc(-c2cc(C(F)(F)F)ccc2Cl)o1` [C21, 3,5-diethyl 4-{5-[2-chloro-5-(trifluoromethyl)phenyl]furan-2-yl}-2,6-dimethyl-1,4-dihydropyridine-3,5-dicarboxylate], the midpoint of inhibition, the IC50, lay at 14 ± 1 µM. Further, the “% Inhibition at ICmax” value under setting [1] stood at 62 ± 7%.
`CC(C)S(=O)(=O)c1c(SCC#N)sc(C#N)c1N` [C27, 3-amino-5-[(cyanomethyl)sulfanyl]-4-(propane-2-sulfonyl)thiophene-2-carbonitrile] registered an IC50 of 89 ± 1 µM. The “% Inhibition at ICmax” value under setting [1] is reported as 92 ± 3%.
Consider `O=C(O)c1c2c(nc3ccccc13)CSc1ccc(Cl)cc1-2` [C30, 2-chloro-6H-5-thia-7-azatetraphene-12-carboxylic acid], for which the IC50 was determined as 29 ± 1 µM.
In turn, `C#CC1(NC(=O)NCCCCCCNC(=O)NC2(C#C)CCCCC2)CCCCC1` [C7, 3-(1-ethynylcyclohexyl)-1-(6-{[(1-ethynylcyclohexyl)carbamoyl]amino}hexyl) urea] returned an IC50 of 85 ± 16 µM. Moreover, the “% Inhibition at ICmax” value under setting [1] stood at 97 ± 7%.
`N#CC1=C(N)OC2=C(COc3ccc(F)cc32)C1c1ccc(Cl)cc1` (centres unmarked) [C34, 2-amino-4-(4-chlorophenyl)-9-fluoro-4H,5H-pyrano[3,2-c]chromene-3-carbonitrile] came in with an IC50 of 210 ± 1 µM. Further, the “% Inhibition at ICmax” value under setting [1] was ~87%.
`O=C(CSc1nc2cc(Cl)ccc2o1)Nc1cc(C(F)(F)F)cc(C(F)(F)F)c1` [C5, N-[3,5-bis(trifluoromethyl)phenyl]-2-[(5-chloro-1,3-benzoxazol-2-yl)sulfanyl]acetamide] came in with an IC50 of 46 ± 1 µM.
The compound `O=C(O/N=C/Nc1ncc(-c2ccc(Br)s2)s1)c1ccc([N+](=O)[O-])cc1` [C25, (E)-({[5-(5-bromothiophen-2-yl)-1,3-thiazol-2-yl]amino}methylidene)amino 4-nitrobenzoate] had an IC50 of 91 ± 1 µM. The “% Inhibition at ICmax” value under setting [1] is listed as ~91%.
For `Cc1cc(C)c2cc(C(=O)Nc3ccc4c(c3)OCO4)[nH]c2c1` [C20, N-(2H-1,3-benzodioxol-5-yl)-4,6-dimethyl-1H-indole-2-carboxamide], in that order: 53 ± 2 µM and 100 ± 1%.
Compound `COc1ccc(C(C)=O)cc1CO/N=C1\CSCc2ccccc21` [C16, 1-{3-[({[(4Z)-3,4-dihydro-1H-2-benzothiopyran-4-ylidene]amino}oxy)methyl]-4-methoxyphenyl}ethan-1-one] came in with an IC50 of 58 ± 1 µM. Under setting [1], the “% Inhibition at ICmax” value stood at 79 ± 6%.
In the case of `CSc1sc(C(=O)O)c(-c2cccc(Cl)c2)c1C#N` [D6, 3-(3-chlorophenyl)-4-cyano-5-(methylsulfanyl)thiophene-2-carboxylic acid], the IC50 is > 1500 µM.
As for `CCOC(=O)CNC(=O)CCc1cc(OC)c(OC)c(OC)c1` [C33, ethyl 2-[3-(3,4,5-trimethoxyphenyl)propanamido]acetate], the IC50 was > 1920 µM. Further, the “% Inhibition at ICmax” value under setting [1] is listed as ~53%.
The corresponding values for `N#CC(NCc1ccccc1)c1ccc(Cl)c(Cl)c1` (centres unmarked) [C13, 2-(benzylamino)-2-(3,4-dichlorophenyl)acetonitrile] are 95 ± 1 µM and 80 ± 3%.
With `O=C(Nc1cccc(Cl)c1)Nc1ccc(F)c(Cl)c1` [D3, 1-(3-Chloro-4-fluoro-phenyl)-3-(3-chloro-phenyl)-urea], the IC50 was > 5000 µM.
In turn, `Brc1csc(C2SCCS2)c1` [C31, 2-(4-bromothiophen-2-yl)-1,3-dithiolane] yielded an IC50 of 90 ± 1 µM. The “% Inhibition at ICmax” value under setting [1] was found to be 85 ± 1%.
The corresponding values for `COc1cc(C2SCCS2)cc([N+](=O)[O-])c1OS(=O)(=O)c1cc(Cl)ccc1Cl` [C11, 4-(1,3-dithiolan-2-yl)-2-methoxy-6-nitrophenyl 2,5-dichlorobenzene-1-sulfonate] are 78 ± 1 µM and 92 ± 5%.
For the compound `CC(C)N(C(=O)c1ccc(-c2ccccc2F)cc1)C(C)C` [C6, 4-(2-fluorophenyl)-N,N-bis(propan-2-yl)benzamide], the IC50 was > 605 µM. Moreover, the “% Inhibition at ICmax” value under setting [1] is ~70%.
For `O=C(COC(=O)c1cccc(I)c1)c1ccccc1` [C35, 2-oxo-2-phenylethyl 3-iodobenzoate], in that order: 63 ± 1 µM and 100 ± 1%.
The corresponding values for `Nc1c(Cl)cc(C(=O)Nc2cc(Cl)c(Cl)cc2Cl)cc1Cl` [C10, 4-amino-3,5-dichloro-N-(2,4,5-trichlorophenyl)benzamide] are 98 ± 1 µM and 57 ± 7%.
For the compound `CSc1sc(NC(=O)N2CCOCC2)c(-c2ccc(Cl)cc2)c1C#N` [D4, N-[3-(4-chlorophenyl)-4-cyano-5-(methylsulfanyl)thiophen-2-yl]morpholine-4-carboxamide], the IC50 is 113 ± 1 µM. Further, the “% Inhibition at ICmax” value under setting [1] is given as 78 ± 2%.
Compound `Nc1ccccc1Sc1cc(C(F)(F)F)cc([N+](=O)[O-])c1Sc1ccccc1N` [C18, 2-({2-[(2-aminophenyl)sulfanyl]-6-nitro-4-(trifluoromethyl)phenyl}sulfanyl)aniline] had an IC50 of 24 ± 1 µM.
With `CCCCc1ccc(NC(=O)CSc2nc(C3CCCCC3)c(C#N)c(=O)[nH]2)c(C)c1` [C28, N-(4-butyl-2-methylphenyl)-2-[(5-cyano-4-cyclohexyl-6-oxo-1,6-dihydropyrimidin-2-yl)sulfanyl]acetamide], the IC50 is > 652 µM. Besides, under setting [1], the “% Inhibition at ICmax” value was 81 ± 2%.
Turning to “benzalkonium chloride [C3, reference compound]”, under setting [2], the “ICmax (concentration causing maximal inhibition)” value is given as 300 ± 3 µM. For the same compound, under setting [3], inhibition was half-maximal at 190 ± 1 µM (IC50). Under setting [1], the “% Inhibition at ICmax” value is recorded as 31 ± 8%.
Take `O=c1c2ccccc2[se]n1-c1ccccc1` [C2, 2-Phenyl-1,2-benzoselenazol-3-one(ebselen), reference compound]: under setting [2], the “ICmax (concentration causing maximal inhibition)” value is 300 ± 1 µM. This compound came in with an IC50 under setting [3] of 27 ± 1 µM. For the same compound, the “% Inhibition at ICmax” value runs as follows: under setting [1], “over 90%”; (25 °C, 2% DMSO, pH 8.0, 20 nM XccFPR, 95 µM DCPIP, 50 μM NADPH, listed as 2) 95 ± 3%.
As for `COC(=O)c1sccc1NC(=O)Cc1cccs1` [C26, methyl 3-[2-(thiophen-2-yl)acetamido]thiophene-2-carboxylate], half-maximal inhibition (IC50) was put at 33 ± 2 µM.
On the same count and under the same terms, then `Cn1cc(Br)c(/C=N/Nc2ccc(Cl)cc2Cl)n1` [C17, 4-bromo-3-[(1E)-[2-(2,4-dichlorophenyl)hydrazin-1-ylidene]methyl]-1-methyl-1H-pyrazole], with 27 ± 2 µM.
For the compound `Clc1ccc2sc(SCc3ccccc3)nc2c1` [C8, 2-(benzylsulfanyl)-5-chloro-1,3-benzothiazole], the IC50 turned out to be 79 ± 1 µM. Further, the “% Inhibition at ICmax” value under setting [1] was determined as 88 ± 9%.
For `Cc1ccc(C)c(CSc2nc(C3CCCCC3)c(C#N)c(=O)[nH]2)c1` [C24, 4-cyclohexyl-2-{[(2,5-dimethylphenyl)methyl]sulfanyl}-6-oxo-1,6-dihydropyrimidine-5-carbonitrile], in that order: 35 ± 1 µM and 43 ± 4%.
In the case of `O=C(Nc1ccccc1-c1nc(-c2ccc(Cl)cc2)no1)C(F)(F)F` [C29, N-{2-[3-(4-chlorophenyl)-1,2,4-oxadiazol-5-yl]phenyl}-2,2,2-trifluoroacetamide], the IC50 was 11 ± 2 µM. The “% Inhibition at ICmax” value under setting [1] was 27 ± 2%.
For `O=[N+]([O-])c1ccc(Oc2c(Cl)cccc2Cl)cc1` [C4, 1,3-dichloro-2-(4-nitrophenoxy)benzene], in that order: 36 ± 1 µM and 86 ± 1%.
The corresponding values for `O=C(Nc1cccc(Cl)c1)Nc1ccccc1NS(=O)(=O)c1cccs1` [D1, 3-(3-chlorophenyl)-1-[2-(thiophene-2-sulfonamido)phenyl]urea] are 76 ± 1 µM and 98 ± 1%.
